In patent US20220187282A1, “CARDIOMYOCYTE PROLIFERATION” (The Council of the Queensland Institute of Medical Research, priority 2019, published 2022):
Read-outs that look alike come from different tables or passages of the source.

Experiments:
Assay type in all cases: biochemical
[1] = biological target: kinases (Homo sapiens, UniProt O15075); conditions: DCAMKL1 (DCLK1) FRET-Z-Lyte SP
[2] = biological target: kinases (Homo sapiens, UniProt O15264); conditions: MAPK13 (p38 delta) Z-Lyte SP; Test Conc(μM):ATP Conc(μM) 1:10
Sequence of kinases (Homo sapiens, UniProt O15264) (O15264 whole entry): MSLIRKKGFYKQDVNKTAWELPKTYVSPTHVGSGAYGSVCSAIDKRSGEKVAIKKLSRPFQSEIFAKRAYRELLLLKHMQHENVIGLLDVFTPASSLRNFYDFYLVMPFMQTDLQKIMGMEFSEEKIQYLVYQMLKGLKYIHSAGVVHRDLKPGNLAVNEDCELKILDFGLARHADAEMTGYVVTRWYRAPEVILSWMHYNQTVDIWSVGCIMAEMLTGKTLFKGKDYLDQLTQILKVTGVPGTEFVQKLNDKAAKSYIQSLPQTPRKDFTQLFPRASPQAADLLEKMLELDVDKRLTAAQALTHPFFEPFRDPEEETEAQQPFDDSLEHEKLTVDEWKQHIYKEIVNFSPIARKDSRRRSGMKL

[3] = biological target: kinases (Homo sapiens, UniProt O75460); conditions: ERN1 FRET-Lantha SP; Test Conc(μM) 1
[4] = biological target: kinases (Homo sapiens, UniProt O76039); conditions: CDKL5 FRET-Z-Lyte SP; Test Conc(μM):ATP Conc(μM) 1:500
Sequence of kinases (Homo sapiens, UniProt O76039) (O76039 whole entry): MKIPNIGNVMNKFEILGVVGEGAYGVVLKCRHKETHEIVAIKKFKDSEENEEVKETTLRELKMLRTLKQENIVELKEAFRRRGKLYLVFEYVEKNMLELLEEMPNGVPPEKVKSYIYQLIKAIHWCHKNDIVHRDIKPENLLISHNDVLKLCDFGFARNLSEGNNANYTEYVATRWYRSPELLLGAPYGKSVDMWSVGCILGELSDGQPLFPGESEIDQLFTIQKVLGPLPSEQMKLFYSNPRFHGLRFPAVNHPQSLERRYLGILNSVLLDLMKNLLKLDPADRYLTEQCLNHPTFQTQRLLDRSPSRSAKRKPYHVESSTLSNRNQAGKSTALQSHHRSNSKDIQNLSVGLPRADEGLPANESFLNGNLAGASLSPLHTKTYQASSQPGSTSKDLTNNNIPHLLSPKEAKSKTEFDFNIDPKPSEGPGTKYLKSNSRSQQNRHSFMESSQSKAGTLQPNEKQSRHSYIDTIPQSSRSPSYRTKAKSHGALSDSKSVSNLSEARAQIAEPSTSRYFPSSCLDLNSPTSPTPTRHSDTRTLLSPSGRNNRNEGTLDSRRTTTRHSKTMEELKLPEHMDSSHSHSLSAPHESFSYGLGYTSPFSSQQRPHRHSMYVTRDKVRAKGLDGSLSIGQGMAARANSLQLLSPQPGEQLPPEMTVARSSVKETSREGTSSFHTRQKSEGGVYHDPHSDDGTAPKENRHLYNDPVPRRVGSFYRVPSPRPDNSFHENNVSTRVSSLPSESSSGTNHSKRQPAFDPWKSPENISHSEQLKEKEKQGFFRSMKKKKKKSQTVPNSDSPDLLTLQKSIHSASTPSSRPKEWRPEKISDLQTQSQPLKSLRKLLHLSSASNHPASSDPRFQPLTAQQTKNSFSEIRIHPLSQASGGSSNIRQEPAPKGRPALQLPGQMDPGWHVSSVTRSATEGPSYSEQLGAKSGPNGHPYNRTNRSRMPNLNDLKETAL

[5] = biological target: kinases (Homo sapiens, UniProt O94768); conditions: STK17B (DRAK2) FRET-Lantha SP; Test Conc(μM) 1
[6] = biological target: kinases (Homo sapiens, UniProt P07948); conditions: LYN A Hu Phos FRET-Z-Lyte SP; Test Conc(μM):ATP Conc(μM) 1:25
[7] = biological target: kinases (Homo sapiens, UniProt P08922); conditions: ROS1 FRET-Z-Lyte SP; Test Conc(μM):ATP Conc(μM) 1:50
Sequence of kinases (Homo sapiens, UniProt P08922) (P08922 28-2347): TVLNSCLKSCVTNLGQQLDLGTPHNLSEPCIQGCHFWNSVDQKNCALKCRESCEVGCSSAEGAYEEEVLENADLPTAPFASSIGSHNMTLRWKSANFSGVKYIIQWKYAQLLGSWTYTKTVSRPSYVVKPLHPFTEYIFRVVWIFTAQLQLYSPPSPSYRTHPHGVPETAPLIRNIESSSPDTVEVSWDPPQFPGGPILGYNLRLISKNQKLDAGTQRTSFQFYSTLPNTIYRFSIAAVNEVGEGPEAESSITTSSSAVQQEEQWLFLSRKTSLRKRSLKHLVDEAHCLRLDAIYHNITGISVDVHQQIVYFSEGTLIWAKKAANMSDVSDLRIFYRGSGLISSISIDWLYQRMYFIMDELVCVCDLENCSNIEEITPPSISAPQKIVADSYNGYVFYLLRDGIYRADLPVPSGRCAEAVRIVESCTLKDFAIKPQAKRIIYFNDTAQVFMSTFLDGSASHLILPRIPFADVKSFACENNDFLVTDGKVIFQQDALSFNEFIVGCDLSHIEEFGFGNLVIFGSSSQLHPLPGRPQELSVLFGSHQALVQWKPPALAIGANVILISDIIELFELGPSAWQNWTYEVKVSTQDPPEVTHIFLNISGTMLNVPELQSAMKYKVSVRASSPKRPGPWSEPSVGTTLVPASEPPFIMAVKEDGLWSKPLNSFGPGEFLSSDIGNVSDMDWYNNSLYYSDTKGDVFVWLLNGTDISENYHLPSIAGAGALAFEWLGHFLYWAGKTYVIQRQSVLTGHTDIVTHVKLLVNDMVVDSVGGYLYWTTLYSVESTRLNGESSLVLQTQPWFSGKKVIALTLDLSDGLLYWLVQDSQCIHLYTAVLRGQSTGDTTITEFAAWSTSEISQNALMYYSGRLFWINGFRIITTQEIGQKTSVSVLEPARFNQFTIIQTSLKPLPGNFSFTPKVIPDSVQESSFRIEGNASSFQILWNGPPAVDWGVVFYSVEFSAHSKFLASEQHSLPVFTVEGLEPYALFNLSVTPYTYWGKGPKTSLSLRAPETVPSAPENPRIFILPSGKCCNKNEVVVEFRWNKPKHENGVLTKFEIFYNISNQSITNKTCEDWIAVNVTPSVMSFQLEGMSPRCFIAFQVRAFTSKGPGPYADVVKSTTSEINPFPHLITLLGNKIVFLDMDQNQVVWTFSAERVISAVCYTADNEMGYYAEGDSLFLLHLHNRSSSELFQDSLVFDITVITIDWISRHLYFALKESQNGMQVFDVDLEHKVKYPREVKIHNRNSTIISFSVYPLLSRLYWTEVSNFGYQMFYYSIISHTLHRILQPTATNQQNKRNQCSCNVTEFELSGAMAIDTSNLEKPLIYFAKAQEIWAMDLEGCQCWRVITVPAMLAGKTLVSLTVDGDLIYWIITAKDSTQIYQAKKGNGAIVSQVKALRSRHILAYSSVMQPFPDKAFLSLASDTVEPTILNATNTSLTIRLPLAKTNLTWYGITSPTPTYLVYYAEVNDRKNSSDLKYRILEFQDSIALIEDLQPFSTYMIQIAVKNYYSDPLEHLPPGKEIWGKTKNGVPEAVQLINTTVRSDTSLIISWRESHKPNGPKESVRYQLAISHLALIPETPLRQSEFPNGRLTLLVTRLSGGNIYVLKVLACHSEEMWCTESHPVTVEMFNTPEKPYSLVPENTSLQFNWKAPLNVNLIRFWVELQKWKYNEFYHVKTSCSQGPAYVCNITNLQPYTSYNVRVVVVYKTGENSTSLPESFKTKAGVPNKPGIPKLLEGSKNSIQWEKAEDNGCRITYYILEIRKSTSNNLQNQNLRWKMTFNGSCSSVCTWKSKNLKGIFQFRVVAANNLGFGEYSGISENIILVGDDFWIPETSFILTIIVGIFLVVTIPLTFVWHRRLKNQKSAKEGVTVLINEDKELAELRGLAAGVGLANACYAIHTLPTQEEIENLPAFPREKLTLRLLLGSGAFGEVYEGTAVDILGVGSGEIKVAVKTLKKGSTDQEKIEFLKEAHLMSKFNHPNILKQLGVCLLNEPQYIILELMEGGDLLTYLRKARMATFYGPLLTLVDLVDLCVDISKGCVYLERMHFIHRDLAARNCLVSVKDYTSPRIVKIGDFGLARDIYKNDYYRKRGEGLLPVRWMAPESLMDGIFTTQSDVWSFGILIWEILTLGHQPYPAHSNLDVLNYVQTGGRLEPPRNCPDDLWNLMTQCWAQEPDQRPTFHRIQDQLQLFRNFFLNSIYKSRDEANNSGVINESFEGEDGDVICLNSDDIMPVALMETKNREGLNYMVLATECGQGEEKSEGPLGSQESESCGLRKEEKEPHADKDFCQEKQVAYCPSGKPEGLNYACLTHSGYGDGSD

[8] = biological target: kinases (Homo sapiens, UniProt P32298); conditions: GRK4 FRET-Z-Lyte SP; Test Conc(μM):ATP Conc(μM) 1:10
[9] = biological target: kinases (Homo sapiens, UniProt P41240); conditions: CSK FRET-Z-Lyte SP; Test Conc(μM):ATP Conc(μM) 1:10
[10] = biological target: kinases (Homo sapiens, UniProt P42345); conditions: FRAP1 (mTOR) *Mn* Z-Lyte SP; Test Conc(μM):ATP Conc(μM) 1:10
[11] = biological target: kinases (Homo sapiens, UniProt P50613); conditions: CDK7/cyclin H/MNAT1 Adapta SP; Test Conc(μM):ATP Conc(μM) 1:150
[12] = biological target: kinases (Homo sapiens, UniProt P54764); conditions: EPHA4 FRET-Z-Lyte SP; Test Conc(μM):ATP Conc(μM) 1:100
[13] = biological target: kinases (Homo sapiens, UniProt P78527); conditions: DNA-PK FRET-Z-Lyte SP; Test Conc(μM):ATP Conc(μM) 1:25
[14] = biological target: kinases (Homo sapiens, UniProt Q00534); conditions: CDK6 Cyclin D1 FRET-Adapta SP; Test Conc(μM):ATP Conc(μM) 1:10
Sequence of kinases (Homo sapiens, UniProt Q00534) (Q00534 whole entry): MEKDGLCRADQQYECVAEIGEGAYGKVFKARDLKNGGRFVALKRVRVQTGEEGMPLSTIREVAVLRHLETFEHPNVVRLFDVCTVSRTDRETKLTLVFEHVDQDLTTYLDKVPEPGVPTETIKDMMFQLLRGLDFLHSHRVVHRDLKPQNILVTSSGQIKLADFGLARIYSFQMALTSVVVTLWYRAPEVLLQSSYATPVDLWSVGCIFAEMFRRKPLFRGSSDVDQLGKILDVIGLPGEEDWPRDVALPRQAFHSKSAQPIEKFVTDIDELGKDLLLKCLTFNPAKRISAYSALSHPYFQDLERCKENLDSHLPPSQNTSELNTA

[15] = biological target: kinases (Homo sapiens, UniProt Q02763); conditions: TEK (Tie2) *Mn* FRET-Z-Lyte SP; Test Conc(μM):ATP Conc(μM) 1:10
[16] = biological target: kinases (Homo sapiens, UniProt Q05397); conditions: PTK2 (FAK) FRET-Z-Lyte SP; Test Conc(μM):ATP Conc(μM) 1:50
[17] = biological target: kinases (Homo sapiens, UniProt Q13237); conditions: PRKG2 (PKG2) FRET-Z-Lyte SP; Test Conc(μM):ATP Conc(μM) 1:150
Sequence of kinases (Homo sapiens, UniProt Q13237) (Q13237 whole entry): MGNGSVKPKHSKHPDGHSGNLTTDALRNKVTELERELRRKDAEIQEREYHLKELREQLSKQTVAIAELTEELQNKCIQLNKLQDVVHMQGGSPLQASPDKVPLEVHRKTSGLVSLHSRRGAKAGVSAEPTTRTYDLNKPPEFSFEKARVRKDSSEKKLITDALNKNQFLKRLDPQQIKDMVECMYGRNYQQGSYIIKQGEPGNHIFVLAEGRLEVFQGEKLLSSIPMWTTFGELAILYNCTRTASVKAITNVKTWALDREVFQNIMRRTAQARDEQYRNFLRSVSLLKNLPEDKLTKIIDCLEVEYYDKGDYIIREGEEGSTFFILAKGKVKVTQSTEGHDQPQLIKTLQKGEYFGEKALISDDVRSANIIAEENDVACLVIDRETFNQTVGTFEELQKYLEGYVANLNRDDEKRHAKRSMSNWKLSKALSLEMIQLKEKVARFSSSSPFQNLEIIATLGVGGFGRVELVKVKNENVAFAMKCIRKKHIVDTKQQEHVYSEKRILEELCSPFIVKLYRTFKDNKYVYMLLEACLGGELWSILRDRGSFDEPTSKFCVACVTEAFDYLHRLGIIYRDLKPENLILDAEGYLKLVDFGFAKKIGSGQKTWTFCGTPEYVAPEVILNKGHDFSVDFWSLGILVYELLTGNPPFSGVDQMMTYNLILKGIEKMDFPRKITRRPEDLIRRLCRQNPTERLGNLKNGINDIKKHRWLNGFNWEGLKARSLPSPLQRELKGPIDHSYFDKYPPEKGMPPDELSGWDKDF

[18] = biological target: kinases (Homo sapiens, UniProt Q15746); conditions: MYLK (MLCK) FRET-Lantha SP; Test Conc(μM) 1
[19] = biological target: kinases (Homo sapiens, UniProt Q16513); conditions: PKN2 (PRK2) FRET-lantha SP; Test Conc(μM) 1
[20] = biological target: kinases (Homo sapiens, UniProt Q5TCX8); conditions: MLK4 FRET-Lantha SP; Test Conc(μM) 1
[21] = biological target: kinases (Homo sapiens, UniProt Q7KZI7); conditions: MARK2 FRET-Z-Lyte SP; Test Conc(μM):ATP Conc(μM) 1:10
[22] = biological target: kinases (Homo sapiens, UniProt Q86Y07); conditions: VRK2 FRET-Lantha SP; Test Conc(μM) 1
[23] = biological target: kinases (Homo sapiens, UniProt Q8N5S9); conditions: CAMKK1 (Alpha) FRET-Lantha SP; Test Conc(μM) 1
[24] = biological target: kinases (Homo sapiens, UniProt Q8TD08); conditions: MAPK15 (ERK7) FRET-Lantha SP; Test Conc(μM) 1
[25] = biological target: kinases (Homo sapiens, UniProt Q8TDC3); conditions: BRSK1 (SAD1) FRET-Z-Lyte SP; Test Conc(μM):ATP Conc(μM) 1:25
[26] = biological target: kinases (Homo sapiens, UniProt Q99558); conditions: MAP3K14 (NIK) FRET-Lantha SP; Test Conc(μM) 1
[27] = biological target: kinases (Homo sapiens, UniProt Q9BXA7); conditions: STK22D (TSSK1) FRET-Z-Lyte SP; Test Conc(μM):ATP Conc(μM) 1:10
Sequence of kinases (Homo sapiens, UniProt Q9BXA7) (Q9BXA7 whole entry): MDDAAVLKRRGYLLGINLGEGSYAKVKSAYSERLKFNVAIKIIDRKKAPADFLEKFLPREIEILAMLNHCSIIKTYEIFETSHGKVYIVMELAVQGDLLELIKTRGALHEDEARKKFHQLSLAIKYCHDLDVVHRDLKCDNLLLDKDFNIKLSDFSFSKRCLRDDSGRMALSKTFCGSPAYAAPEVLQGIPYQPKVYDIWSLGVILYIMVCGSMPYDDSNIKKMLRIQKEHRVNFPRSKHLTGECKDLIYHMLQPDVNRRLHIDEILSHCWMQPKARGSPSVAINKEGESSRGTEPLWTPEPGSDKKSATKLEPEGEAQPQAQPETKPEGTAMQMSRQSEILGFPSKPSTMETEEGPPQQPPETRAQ

[28] = biological target: kinases (Homo sapiens, UniProt Q9P0L2); conditions: MARK1 (MARK) FRET-Z-Lyte SP; Test Conc(μM):ATP Conc(μM) 1:5

| SMILES | Mean Inhib (%) [2] [%] | Mean Inhib (%) [3] [%] | Mean Inhib (%) [4] [%] | Mean Inhib (%) [5] [%] | Mean Inhib (%) [6] [%] | Mean Inhib (%) [7] [%] | Mean Inhib (%) [8] [%] | Mean Inhib (%) [9] [%] | Mean Inhib (%) [10] [%] | Mean Inhib (%) [11] [%] | Mean Inhib (%) [12] [%] | Mean Inhib (%) [13] [%] | Mean Inhib (%) [14] [%] | Mean Inhib (%) [15] [%] | Mean Inhib (%) [16] [%] | Mean Inhib (%) [17] [%] | Mean Inhib (%) [18] [%] | Mean Inhib (%) [19] [%] | Mean Inhib (%) [20] [%] | Mean Inhib (%) [21] [%] | also measured |
| --- | --- | --- | --- | --- | --- | --- | --- | --- | --- | --- | --- | --- | --- | --- | --- | --- | --- | --- | --- | --- | --- |
| Cc1ccc(NC(=O)c2ccnc(N3CCOCC3)c2)cc1Nc1ccnc(N2CC(C)OC(C)C2)n1 (centres unmarked) [compound 3] | 4.7 | −3.4 | 13.9 | 4.7 | 6.3 | 10.0 | 0.0 | 10.1 | 0.7 | −2.3 | 6.9 | 13.7 | −1.8 | −4.4 | 13.1 | 2.4 | 2.2 | −2.6 | −1.5 | 7.4 | Mean Inhib (%) ([1]; Test Conc(μM):ATP Conc(μM) 1:300): 31.0%; Mean Inhib (%) [22]: −5.7%; Mean Inhib (%) [23]: −7.3%; Mean Inhib (%) [24]: 0.8%; Mean Inhib (%) [25]: 2.2%; Mean Inhib (%) [26]: −1.3%; Mean Inhib (%) [27]: 18.8%; Mean Inhib (%) [28]: 16.9% |
| Cc1cc(Oc2ccnc(Nc3ccc(S(N)(=O)=O)cc3)c2)c(-c2ccccn2)nc1C [compound 65] | 3.7 | 1.0 | 9.8 | 2.0 | 49.5 | 8.9 | 16.3 | 6.4 | −8.8 | −2.2 | 47.0 | 13.9 | 6.7 | −7.9 | 5.7 | 0.2 | −0.5 | 5.1 | 1.9 | 3.8 | Mean Inhib (%) ([1]; Test Conc(μM):ATP Conc(μM) 0.25): 11.8%; Mean Inhib (%) [22]: −16.6%; Mean Inhib (%) [23]: −6.4%; Mean Inhib (%) [24]: 1.5%; Mean Inhib (%) [25]: 4.7%; Mean Inhib (%) [26]: 4.9%; Mean Inhib (%) [27]: 12.2%; Mean Inhib (%) [28]: 5.7% |
